Data from the supplement of paper PMC10627819.

Tests used:
S. aureus DSM 20231 [1] = assay: fitness (endpoint OD595 vs no drug) (fraction); higher = more growth
In short: (§1)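 Plates with 384 wells were inoculated at OD595 0.01 using 30 µl of TSB, LB Lennox or CY, or 55 µl for S. pneumoniae. Incubation was at 37 °C, with OD595 measured every 30 min for 14 h. Fitness is the stationary-phase transition optical density over the robust mean of no-drug control wells, after first-reading background subtraction; it is capped at 1.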

S. aureus Newman = assay: Bliss interaction score (quartile over a dose matrix) (fitness difference); higher = more antagonism (negative = synergy)
In short: (§2)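 Each plate was normalised to the robust mean of its own no-drug wells, using OD595 at entry into stationary phase, with values capped at 1. This normalised growth is the fitness value. The Bliss score is the difference between observed and product-expected fitness, with single-drug fitness inferred from the combination data and quartiles taken over technical, biological and donor/recipient replicates.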

B. subtilis 168 [2] = assay: as above
In short: as §2

S. aureus DSM 20231 [3] = assay: as above
In short: as §2

S. pneumoniae D39V [4] = assay: as above
In short: as §2

B. subtilis 168 [5] = assay: fitness (endpoint OD595 vs no drug) (fraction); higher = more growth
In short: as §1

S. pneumoniae D39V [6] = assay: as above
In short: as §1
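Throughout, for Bliss interaction score (quartile over a dose matrix): first quartile when negative (synergy) and third quartile when positive (antagonism).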

CC(=O)NC[C@H]1CN(c2ccc(N3CCOCC3)c(F)c2)C(=O)O1 [Linezolid] + CCCCCCCCCC(=O)N[C@@H]1[C@H]([C@@H]([C@H](O[C@H]1OC2=C3C=C4C=C2OC5=C(C=C(C=C5)[C@H]([C@H]6C(=O)N[C@@H](C7=C(C(=CC(=C7)O)OC8[C@H]([C@H]([C@@H]([C@H](O8)CO)O)O)O)C9=C(C=CC(=C9)[C@H](C(=O)N6)NC(=O)[C@@H]4NC(=O)[C@@H]1C2=CC(=CC(=C2)OC2=C(C=CC(=C2)[C@H](C(=O)N[C@H](CC2=CC(=C(O3)C=C2)Cl)C(=O)N1)N)O)O)O)C(=O)O)O[C@H]1[C@@H]([C@H]([C@@H]([C@H](O1)CO)O)O)NC(=O)C)Cl)CO)O)O [Teicoplanin]
fitness, S. aureus DSM 20231 [1], main component drawn
Details | first compound 0.125 µg/mL | first compound 0.25 µg/mL | first compound 0.5 µg/mL
partner 0.1562 µg/mL | 0.852 | 0.649 | 0.158
partner 0.3125 µg/mL | 0.989 | – | –
partner 0.625 µg/mL | ≥ 1 | – | –

S. aureus DSM 20231 [1], first compound 1 µg/mL, one replicate, main component drawn
Details | fitness
partner 0.1562 µg/mL | 0.0359
partner 0.3125 µg/mL | 0.0319
partner 0.625 µg/mL | 0.0292

main component drawn
Details | Bliss interaction score
B. subtilis 168 [2] | -0.0585
S. aureus DSM 20231 [3] | 0.109
S. aureus Newman | 0.116
S. pneumoniae D39V [4] | -0.0593

CC(=O)NC[C@H]1CN(c2ccc(N3CCOCC3)c(F)c2)C(=O)O1 [Linezolid] + CCN(CC)CCOC(=O)c1ccc(N)cc1 [Procaine]
fitness, one replicate
Details | partner 85.5 µg/mL | partner 171 µg/mL | partner 342 µg/mL
B. subtilis 168 [5], first compound 0.0625 µg/mL | 0.828 | 0.846 | 0.858
S. aureus DSM 20231 [1], first compound 1 µg/mL | 0.0561 | 0.0334 | 0.05
S. pneumoniae D39V [6], first compound 0.2 µg/mL | 0.792 | 0.839 | 0.778
S. pneumoniae D39V [6], first compound 0.4 µg/mL | 0.609 | 0.669 | 0.621
S. pneumoniae D39V [6], first compound 0.8 µg/mL | 0.245 | 0.335 | 0.271

fitness
Details | first compound 0.105 µg/mL | first compound 0.125 µg/mL | first compound 0.21 µg/mL | first compound 0.25 µg/mL | first compound 0.42 µg/mL | first compound 0.5 µg/mL
B. subtilis 168 [5], partner 85.5 µg/mL | – | 0.587 | – | 0.101 | – | 0.022
B. subtilis 168 [5], partner 171 µg/mL | – | 0.613 | – | 0.0992 | – | 0.0423
B. subtilis 168 [5], partner 342 µg/mL | – | 0.569 | – | 0.0813 | – | 0.0154
S. aureus DSM 20231 [1], partner 85.5 µg/mL | – | 0.839 | – | 0.574 | – | 0.15
S. aureus DSM 20231 [1], partner 171 µg/mL | – | 0.832 | – | 0.643 | – | 0.193
S. aureus DSM 20231 [1], partner 342 µg/mL | – | 0.768 | – | 0.582 | – | 0.143
S. pneumoniae D39V [6], partner 85.5 µg/mL | 0.824 | – | 0.728 | – | 0.579 | –
S. pneumoniae D39V [6], partner 171 µg/mL | 0.816 | – | 0.719 | – | 0.569 | –
S. pneumoniae D39V [6], partner 342 µg/mL | 0.801 | – | 0.699 | – | 0.535 | –

Details | Bliss interaction score
B. subtilis 168 [2] | 0.0668
S. aureus DSM 20231 [3] | -0.0676
S. aureus Newman | 0.111
S. pneumoniae D39V [4] | 0.0684
